Source: US20190125735A1, “INHIBITION OF P38 MAPK FOR THE TREATMENT OF CANCER” (Board of Regents, The University of Texas System, priority 2015, published 2019)

Columns and labels:
[1] = test system: HMLE-Snail and HMLE-Twist cells; experiment: Invadopodia formation, degradation of FITC-conjugated gelatin; format: cell-based, human; settings: within 16 h, vs vehicle-treated cells
Experimental: FIGS. 15A-15L: p38 inhibition compromises the acquisition and maintenance of EMT and stem cell properties in vitro. […] Cells were harvested and the corresponding lysates were analyzed by immunoblotting for FOXC2, E-cadherin and mesenchymal markers. β-actin was used as a loading control. […] Cells were harvested at the indicated timepoints and the corresponding lysates were analyzed by immunoblotting for FOXC2, E-cadherin and mesenchymal markers. β-actin was used as a loading control. […] One thousand cells were seeded per well in ultra-low attachment plates and cultured for 7-10 days. Spheres with a diameter greater than 75 μm were counted. The data are reported as the number of spheres formed/1000 seeded cells±SEM. […] Data are presented as mean±SEM. […] The corresponding lysates were analyzed by immunoblotting for FOXC2, E-cadherin and mesenchymal markers. β-actin was used as a loading control. (F) The sphere-forming efficiency of 4-OHT-treated HMLE-Twist-ER cells, transduced with control shRNA (shControl) or p38 shRNA (shp38), was determined. […] (H) The sphere-forming efficiency of the indicated cells was determined in the presence of vehicle or SB203580. […] (J) The relative wound closure by the indicated cells, treated with vehicle or SB203580, was measured by image analysis and represented in a graphical format. […] Degradation of FITC-gelatin was quantified by image analysis. n=150 cells/sample. […]

[2] = test system: MDA-MB-231 cells; experiment: Experimental metastasis model, MDA-MB-231 cells via tail vein of NOD/SCID mice; format: in vivo, mouse; settings: daily injection beginning 48 h post-implantation
Text: Since many breast cancer patients harbor occult micrometastases, at the time of diagnosis, and metastasis is often attributed to the systemic dissemination of tumor cells before or during surgical resection of the primary tumor (Pantel et al., 1999; Fehm et al., 2008), it was examined whether p38 inhibition could also prevent colonization and progression to macrometastasis. For this, an experimental metastasis model was employed, which circumvents the early steps of the metastatic cascade. Luciferase-labeled MDA-MB-231 cells were injected via the tail vein of NOD/SCID mice, and the emergence of lung metastases were monitored using bioluminescence. […] To eliminate the possibility of “off-target” effects, mice were intravenously injected with MDA-MB-231 cells expressing either control shRNA or p38 shRNA.
NOD/SCID and BALB/c mice were purchased from the Jackson Laboratory (Bar Harbor, Me., USA). […] Mice were assessed weekly for tumor growth and metastasis via subcutaneous injection of D-Luciferin (150 mg/kg; Caliper LifeSciences, Hopkinton, Mass., USA) and bioluminescent imaging (IVIS imaging system 200 series; Xenogen Corporation, PerkinElmer, Waltham, Mass., USA). Primary tumor size was measured with a caliper as the product of two perpendicular diameters (mm^2). […]

C[S+]([O-])c1ccc(-c2nc(-c3ccc(F)cc3)c(-c3ccncc3)[nH]2)cc1 (stereo not drawn) [SB203580, 4-(4-Fluorophenyl)-2-(4-methylsulfinylphenyl)-5-(4-pyridyl) 1H-imidazole]
Degradation of underlying extracellular matrix (FITC-gelatin) [1]: failed to do so to the same degree | Event-free survival [2]: extended event-free survival | Metastatic burden (lung) [2]: significantly reduced the metastatic burden
